In one experiment the test system is TAF3 PHD finger. The class given is binding.
Another experiment relates to ING3 PHD finger. The class given is binding.
Another experiment has as its system ING3 PHD. In kind it is binding. To be noted: 1 h, 4°C; pH 7.5.
The next experiment deals with SPIN1 TUDOR. In kind it is binding. The settings on record: 1 h, 4°C; pH 7.5.
For the next experiment, the system named is PHF2 PHD finger. The class given is binding.
The subject of a further experiment is KDM7A PHD finger. The class given is binding.
Another experiment concerns PHF23 PHD finger. In kind it is binding.
The subject of another experiment is PHF2 PHD. The class given is binding. To be noted: 1 h, 4°C; pH 7.5.
In the next experiment the test system is endogenous PHF2. In kind it is binding. To be noted: 1 h, 4°C.
Another experiment concerns endogenous SPIN1. The class given is binding. To be noted: 1 h, 4°C.
For a further experiment, the system named is Set7/9. The class given is biochemical. To be noted: pH 8.5.

Consider 3 substances from PMC8166343 (Biochemical Journal, 2021).

Regarding “PRRK(me3)QQAPRRSA-Biotin (PRRKQQAPRRSA) [TSHZ1 K4me3]”, in the experiment with TAF3 PHD finger, the “interaction with TAF3 PHD finger” value was “bound”. For the same substance, the “interaction with ING3 PHD finger” value in the experiment with ING3 PHD finger is on record as “bound”. The “pull-down of GST-ING3 PHD” value in the experiment with ING3 PHD is recorded as “methylation-dependent interactions”. Also, the “pull-down of GST-SPIN1 TUDOR” value in the experiment with SPIN1 TUDOR was “interacted”.
For the substance SRRK(me3)QGNPQHLS-Biotin [BCL11B K4me3], the “interaction with PHF2 PHD finger” value in the experiment with PHF2 PHD finger is recorded as “interacted”. Besides, the “interaction with TAF3 PHD finger” value in the experiment on TAF3 PHD finger is “interacted”. Further, the “interaction with KDM7A PHD finger” value in the experiment on KDM7A PHD finger was “interacted”. In the experiment on PHF23 PHD finger, the “interaction with PHF23 PHD finger” value is reported as “selectively interacted”. The “pull-down of GST-PHF2 PHD” value in the experiment with PHF2 PHD is “strongly interacted”. Further, the “pull-down of GST-SPIN1 TUDOR” value in the experiment with SPIN1 TUDOR is “interacted”. The “enrichment of endogenous PHF2” value in the experiment with endogenous PHF2 was “very weakly”. The “enrichment of endogenous SPIN1” value in the experiment with endogenous SPIN1 is on record as “enriched”. The “methylation by Set7/9” value in the experiment on Set7/9 is listed as “could not methylate”.
Take VRTK(me3)ADSVPGTY-Biotin [PCLAF K4me3]: the “interaction with KDM7A PHD finger” value in the experiment with KDM7A PHD finger is on record as “only recognized KDM7A”.
